Assays:
[1] = biological target: T1, GST-TIE2 (intracellular domains of human TIE2) (Homo sapiens, UniProt Q02763); assay: TIE-2 Enzyme Assay (TIE2-E2), LANCE method; assay type: biochemical; details: read-out: TIE2 PIC50 TIE2-E2 assay
T1 construct: made in house
Procedure, shortened: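 GST-tagged human TIE2 intracellular domain (aa 762–1104), preactivated 2 h with 80 μM ATP, then 5 nM enzyme run 2 h at room temperature with 1 μM biotinylated D1–15 peptide, 80 μM ATP, HEPES pH 7.4, 2.4% DMSO. Phosphotyrosine detected by LANCE (Eu anti-pTyr/streptavidin-APC) after EDTA stop; IC50 by nonlinear regression, reported as pIC50.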

[2] = biological target: T2, catalytic domain of human VEGFR3 (Homo sapiens, UniProt P35916, H890Q); assay: VEGFR-3 Homogenous Time-Resolved Fluorescence Assay (VEGFR-3-HTRF); assay type: biochemical; details: read-out: VEGFR3 PIC50 VEGFR-3-HTRF assay
T2 construct: made in house; host or cells: Sf9 insect cells (baculovirus, pFastBac1)
From the text: VEGFR—3-Homogenous Time-Resolved Fluorescence Assay (VEGFR-3-HTRF)
This assay assesses Vascular Endothelial Growth Factor 3 (VEGFR3) tyrosine kinase inhibitory activity in substrate phosphorylation assays. The assay examines the ability of small molecule organic compounds to inhibit the tyrosine phosphorylation of a peptide substrate.
The substrate phosphorylation assays use the VEGFR3 catalytic domain, which is expressed in Sf. 9 insect cells as an amino-terminal GST-tagged fusion protein. The catalytic domain of human VEGFR3 (AA residues #819–1298 based upon GenBank Accession #XM003852) is cloned by PCR from human Placenta Marathon Ready cDNA (Clontech). The PCR product is subcloned into pFastBac1 vector containing an N-terminal GST tag. The resulting pFB/GST/VEGFR3icd vector is used to generate a recombinant baculovirus for protein expression. The VEGFR3 catalytic domain translated sequence is:
Autophosphorylation allows enzymes to be fully activated prior to addition to peptide substrates. The assays are performed using enzyme that has been activated by autophosphorylation via preincubation in buffer with ATP and magnesium. Activated enzyme is then diluted and added to titrated compound and the substrate mix.
200 nM VEGFR3 enzyme is activated for 45 minutes at room temperature by incubating the enzyme in buffer containing 100 mM HEPES (pH7.2), 75 μM ATP, 0.3 mM DTT, 0.1 mg/mL BSA, and 10 mM MgCl2. After activation, VEGFR3 is diluted 100-fold into 2× dilution buffer: 200 mM HEPES (pH 7.5), 0.2 mg/mL BSA, 0.6 mM DTT. 20 μL of the diluted enzyme mix is added to 20 μL of 2× substrate mix (150 μM ATP, 20 mM MgCl2, 0.72 μM biotinylated peptide) in the assay plates. Final assay conditions are: 100 mM HEPES (pH 7.2), 75 μM ATP, 10 mM MgCl2, 0.1 mg/mL BSA, 0.3 mM DTT, 0.36 μM biotinylated peptide, and 1 nM VEGFR3 enzyme. Assay plates are incubated for 1.5 hours at room temperature before the addition of 30 μL 100 mM EDTA to the wells to stop the enzymatic reaction. 40 μL/well of HTRF mix are then added to the assay plates for the detection of phosphorylated substrate. Final assay concentrations are: 100 mM HEPES (pH7.2), 0.1 mg/mL BSA, 15 nM streptavidin-labeled allophycocyanin (PerkinElmer), and 1 nM europium-labeled anti-phosphotyrosine antibody (PerkinElmer). Assay plates are left unsealed and are counted in a Wallac Multilabel Counter 1420 (PerkinElmer).
The data for dose responses are plotted as % Control calculated with the data reduction formula 100*(U1–C2)/(C1–C2) versus concentration of compound where U is the unknown value, C1 is the average control value obtained for DMSO , and C2 is the average control value obtained for 0.1M EDTA. Data are fitted to the curve described by: y=((Vmax*x)/(K+x)) where Vmax is the upper asymptote and K is the IC50.

[3] = biological target: T3, TIE2 intracellular domain/c-fms extracellular domain (TIE2/c-fms) chimeric protein (Homo sapiens, UniProt Q02763); assay: TIE-2 Autophosphorylation Assay (TIE2-C); assay type: cell-based; details: TIE2/c-fms expressing mouse 3T3 cells
T3 construct: fused on or other part: c-fms (CSF1R) extracellular domain in place of TIE2's own ectodomain; it serves as the capture handle for the anti-c-fms ELISA; P07333 (Macrophage colony-stimulating factor 1 receptor)
Experimental: TIE-2 Autophosphorylation Assay (TIE2-C)
The TIE-2 autophosphorylation assay uses an ELISA method and a TIE2 intracellular domain/c-fms extracellular domain (TIE2/c-fms) chimeric protein expressing mouse 3T3 cell line. This assay measures the autophosphorylation level of TIE2 protein expressed in cells. The cells are cultured in 96 well plates and grown in high glucose DMEM containing 10% serum at 37° C. in a humidified 10% CO2, 90% air incubator. On the day of the assay, the serum containing medium is removed from the cells and replaced with serum free medium for one hour. The test compound (diluted from a 10 mM stock in DMSO, final DMSO concentration is 0.1%) is incubated with TIE2/c-fms expressing cells for 30 minutes in serum free DMEM. Intrinsic cellular dephosphorylation of the receptor is blocked by the addition of the tyrosine phosphatase inhibitor, sodium orthovanadate, from a 100 mM aqueous stock to a final concentration of 1 mM. The culture media is removed by aspiration and the cells incubated for 30 to 60 mins on ice with lysis buffer containing 137 mM NaCl, 2 mM EDTA, 10% glycerol, 1 mM sodium ortho vanadate, 1×tyrosine phosphatase inhibitor cocktail (Sigma) and complete protease inhibitor cocktail (Roche) in 20 mM Tris-HCl (pH8.0). The cell extracts are transferred into Rat anti-c-fms antibody (Zymed-clone 12-2d6) ([…]) coated 96 well plates and incubated for 12 hrs at 4 degrees. The extracts are removed by aspiration and the plate, washed in a buffer comprising PBS, 0.05% Tween-20, 0.05% NP-40 and 5% SuperBlock (Pierce) followed by incubation with an HRP (horseradish peroxidase) conjugated anti-phosphotyrosine antibody, (Upstate Biotech) The plates are again washed with the aforementioned wash buffer and the colorimetric HRP substrate, TMB is added. The reaction progresses for 90 seconds and is stopped with the addition of 2M H2SO4. The optical density at 450 nm derived from HRP catalyzed TMB is measured with a plate reader capable of reading at the appropriate wavelength (e.g. SpectroMax from Molecular Dynamics). The percent inhibition of activity is calculated relative to non-vanadate treated control wells. The concentration of test compound that inhibits 50% of activity (IC50) is interpolated using nonlinear regression (Levernberg-Marquardt) and the equation, y=Vmax (1−x/(K+x))+Y2, where “K” is equal to the IC50.

GST-VEGFR2 = biological target: T4, GST-VEGFR2 (Homo sapiens, UniProt P35968); assay: VEGF-R2 Enzyme Assay (VEGF-E2), LANCE method; assay type: biochemical; details: read-out: VEGFR2 PIC50 VEGFR-E2 assay
T4 construct: GST-VEGFR2, baculovirus expressed recombinant constructs of the intracellular domains; made in house
T4 sequence (P35968 786-1356 limits assumed): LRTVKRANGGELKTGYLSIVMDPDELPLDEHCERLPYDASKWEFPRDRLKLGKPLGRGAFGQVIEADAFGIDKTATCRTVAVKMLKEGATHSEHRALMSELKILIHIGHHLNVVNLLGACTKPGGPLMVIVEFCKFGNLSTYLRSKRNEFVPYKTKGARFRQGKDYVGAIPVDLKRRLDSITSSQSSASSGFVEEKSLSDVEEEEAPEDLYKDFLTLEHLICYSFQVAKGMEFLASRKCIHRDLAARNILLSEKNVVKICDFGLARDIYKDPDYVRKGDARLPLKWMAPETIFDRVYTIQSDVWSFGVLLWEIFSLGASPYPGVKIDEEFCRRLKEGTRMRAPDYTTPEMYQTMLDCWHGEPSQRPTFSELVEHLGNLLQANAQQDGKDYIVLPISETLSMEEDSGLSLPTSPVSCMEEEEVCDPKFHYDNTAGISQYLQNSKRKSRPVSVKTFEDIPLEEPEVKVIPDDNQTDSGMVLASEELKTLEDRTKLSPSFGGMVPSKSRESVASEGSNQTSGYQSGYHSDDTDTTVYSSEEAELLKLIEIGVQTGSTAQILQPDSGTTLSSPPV

T3 sequence (Q02763 whole entry, change not shown, the tested form may be a part): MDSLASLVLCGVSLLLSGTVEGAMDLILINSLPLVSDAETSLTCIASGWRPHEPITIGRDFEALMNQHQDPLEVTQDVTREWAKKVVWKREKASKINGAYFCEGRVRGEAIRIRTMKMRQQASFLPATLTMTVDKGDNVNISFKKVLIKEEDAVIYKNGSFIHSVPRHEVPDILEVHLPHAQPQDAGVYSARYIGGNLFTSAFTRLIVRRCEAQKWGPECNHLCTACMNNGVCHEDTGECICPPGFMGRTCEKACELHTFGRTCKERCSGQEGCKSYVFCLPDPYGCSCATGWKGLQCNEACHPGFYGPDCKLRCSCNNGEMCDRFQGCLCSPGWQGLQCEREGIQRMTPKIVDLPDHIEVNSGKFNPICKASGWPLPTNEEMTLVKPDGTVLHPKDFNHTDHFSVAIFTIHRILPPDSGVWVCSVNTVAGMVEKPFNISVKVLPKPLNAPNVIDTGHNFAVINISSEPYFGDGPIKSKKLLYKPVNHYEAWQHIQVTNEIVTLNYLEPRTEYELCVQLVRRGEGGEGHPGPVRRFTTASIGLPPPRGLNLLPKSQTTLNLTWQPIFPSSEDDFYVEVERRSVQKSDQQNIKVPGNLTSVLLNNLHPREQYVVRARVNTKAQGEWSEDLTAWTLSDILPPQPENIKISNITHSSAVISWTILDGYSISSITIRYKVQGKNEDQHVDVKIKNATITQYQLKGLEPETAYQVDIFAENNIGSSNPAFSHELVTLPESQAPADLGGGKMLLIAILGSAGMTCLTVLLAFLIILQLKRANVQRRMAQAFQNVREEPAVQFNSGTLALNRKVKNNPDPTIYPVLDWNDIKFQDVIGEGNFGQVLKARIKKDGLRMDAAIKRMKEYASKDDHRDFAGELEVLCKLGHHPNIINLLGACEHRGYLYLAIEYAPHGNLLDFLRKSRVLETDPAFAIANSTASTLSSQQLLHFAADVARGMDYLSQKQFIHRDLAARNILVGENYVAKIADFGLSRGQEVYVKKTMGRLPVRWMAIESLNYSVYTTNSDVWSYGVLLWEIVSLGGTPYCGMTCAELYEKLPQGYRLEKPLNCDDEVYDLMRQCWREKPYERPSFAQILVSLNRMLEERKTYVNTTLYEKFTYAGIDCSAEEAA
T1 sequence (Q02763 762-1104): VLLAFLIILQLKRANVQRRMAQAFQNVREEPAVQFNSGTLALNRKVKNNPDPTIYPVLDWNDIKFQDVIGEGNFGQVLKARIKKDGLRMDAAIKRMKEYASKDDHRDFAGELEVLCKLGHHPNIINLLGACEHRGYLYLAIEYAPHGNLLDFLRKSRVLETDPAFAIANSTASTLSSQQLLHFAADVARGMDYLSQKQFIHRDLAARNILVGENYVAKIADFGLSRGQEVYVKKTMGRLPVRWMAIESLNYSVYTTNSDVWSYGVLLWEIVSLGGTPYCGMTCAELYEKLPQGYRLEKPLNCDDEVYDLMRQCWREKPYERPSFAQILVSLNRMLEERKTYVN
T2 sequence (P35916 with tags, fused parts or gaps isoform P35916-1 H890Q): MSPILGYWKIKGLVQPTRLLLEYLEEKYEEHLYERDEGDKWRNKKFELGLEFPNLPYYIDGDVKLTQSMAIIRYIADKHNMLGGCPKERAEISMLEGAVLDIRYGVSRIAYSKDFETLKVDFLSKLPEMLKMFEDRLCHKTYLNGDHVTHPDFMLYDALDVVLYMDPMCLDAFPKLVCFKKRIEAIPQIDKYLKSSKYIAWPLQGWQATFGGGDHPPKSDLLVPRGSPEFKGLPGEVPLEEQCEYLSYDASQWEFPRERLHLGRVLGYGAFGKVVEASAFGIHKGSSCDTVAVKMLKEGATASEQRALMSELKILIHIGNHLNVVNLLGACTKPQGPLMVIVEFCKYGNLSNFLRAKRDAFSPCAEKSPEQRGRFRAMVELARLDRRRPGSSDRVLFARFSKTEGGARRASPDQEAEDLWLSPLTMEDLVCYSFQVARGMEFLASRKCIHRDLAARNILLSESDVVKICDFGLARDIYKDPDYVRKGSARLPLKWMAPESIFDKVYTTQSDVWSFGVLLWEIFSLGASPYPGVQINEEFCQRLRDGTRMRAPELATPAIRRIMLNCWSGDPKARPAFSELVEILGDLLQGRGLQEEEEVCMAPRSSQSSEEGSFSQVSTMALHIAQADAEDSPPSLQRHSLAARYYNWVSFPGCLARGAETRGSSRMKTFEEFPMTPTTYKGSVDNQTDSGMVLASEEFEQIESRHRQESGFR

Row | IC50 [1] | IC50 [2] | IC50 [3] | IC50 (GST-VEGFR2) | Compound
1 | ≤ 39.8 nM | > 10000 nM | ≥ 300 nM |  | CC1CCCCN1CCCNc1ncc2c(-c3ccc(NC(=O)Nc4cc(C(F)(F)F)ccc4F)cc3)nn(C)c2n1 (stereo not drawn) [Example 85]
2 | ≤ 39.8 nM |  | ≥ 300 nM |  | CCN(CC)CCCNc1ncc2c(-c3ccc(NC(=O)Nc4cc(C(F)(F)F)ccc4F)cc3)nn(C)c2n1 [Example 88, 1-(2-Fluoro-5-trifluoromethyl-phenyl)-3-{4-[1-methyl-6-(3-diethylamino-propylamino)-1H-pyrazolo[3,4-d]pyrimidin-3-yl]-phenyl} urea]
3 | ≤ 39.8 nM |  | ≥ 300 nM |  | CN1CCCC1CCNc1ncc2c(-c3ccc(NC(=O)Nc4cc(C(F)(F)F)ccc4F)cc3)nn(C)c2n1 (stereo not drawn) [Example 89, 1-(2-Fluoro-5-trifluoromethyl-phenyl)-3-{4-[1-methyl-6-[2-(1-methyl-pyrrolidin-2-yl)-ethylamino]-1H-pyrazolo[3,4-d]pyrimidin-3-yl]-phenyl} urea]
4 | 39.8 to 100 nM | 1000 to 10000 nM |  | > 10000 nM | Cn1nc(-c2ccc(NC(=O)Nc3cc(C(F)(F)F)ccc3F)cc2)c2cnc(NCCCCNS(C)(=O)=O)nc21 [Example 97, N-[4-(3-{4-[3-(2-Fluoro-5-trifluoromethyl-phenyl)-ureido]-phenyl} -1-methyl-1H-pyrazolo[3,4-d]pyrimidin-6-ylamino)-butyl]-methanesulfonamide]
5 | ≤ 39.8 nM | > 10000 nM |  | 1000 to 10000 nM | CC(=O)NCCNc1ncc2c(-c3ccc(NC(=O)Nc4cc(C(F)(F)F)ccc4F)cc3)nn(C)c2n1 [Example 98]
6 | ≤ 39.8 nM | 1000 to 10000 nM |  | 1000 to 10000 nM | Cn1cccc1CCNc1ncc2c(-c3ccc(NC(=O)Nc4cc(C(F)(F)F)ccc4F)cc3)nn(C)c2n1 [Example 101, 1-(2-Fluoro-5-trifluoromethyl-phenyl)-3-{4-[1-methyl-6-(2-[1-methyl-1H-pyrrol-2-yl]-ethylamino)-1H-pyrazolo[3,4-d]pyrimidin-3-yl]-phenyl} urea]
7 | > 10000 nM | 100 to 1000 nM |  | 1000 to 10000 nM | Cn1nc(-c2ccc(NS(=O)(=O)c3cccc(Cl)c3Cl)cc2)c2cnc(NCCN3CCNC3=O)nc21 [Example 109, 2,3-Dichloro-N-(4-{1-methyl-6-[2-(2-oxo-imidazolidin-1-yl)-ethylamino]-1H-pyrazolo[3,4-d]pyrimidin-3-yl]-phenyl}-benzenesulfonamide]
8 | > 10000 nM | 1000 to 10000 nM |  | 1000 to 10000 nM | Cn1nc(-c2ccc(NS(=O)(=O)c3cccc(Cl)c3Cl)cc2)c2cnc(NCCCO)nc21 [Example 112, 2,3-Dichloro-N-{4-[1-methyl-6-(3-hydroxy-propylamino)-1H-pyrazolo[3,4-d]pyrimidin-3-yl]-phenyl}-benzenesulfonamide]
9 | 1000 to 10000 nM | 1000 to 10000 nM |  | 1000 to 10000 nM | Cn1nc(-c2ccc(NS(=O)(=O)c3cccc(Cl)c3Cl)cc2)c2cnc(NCCCCO)nc21 [Example 113, 2,3-Dichloro-N-{4-[1-methyl-6-(4-hydroxy-butylamino)-1H-pyrazolo[3,4-d]pyrimidin-3-yl]-phenyl}-benzenesulfonamide]
10 | 1000 to 10000 nM | 1000 to 10000 nM |  | 1000 to 10000 nM | Cn1nc(-c2ccc(NS(=O)(=O)c3cccc(Cl)c3Cl)cc2)c2cnc(NCCCCCO)nc21 [Example 114, 2,3-Dichloro-N-{4-[1-methyl-6-(5-hydroxy-pentylamino)-1H-pyrazolo[3,4-d]pyrimidin-3-yl]-phenyl}-benzenesulfonamide]
11 | 1000 to 10000 nM | 1000 to 10000 nM |  | > 10000 nM | Cn1nc(-c2ccc(NS(=O)(=O)c3cccc(Cl)c3Cl)cc2)c2cnc(NCCCCNS(C)(=O)=O)nc21 [Example 122, 2,3-Dichloro-N-{4-[1-methyl-6-(4-methanesulfonylamino-butylamino)-1H-pyrazolo[3,4-d]pyrimidin-3-yl]-phenyl}-benzenesulfonamide]
12 | ≤ 39.8 nM | 1000 to 10000 nM |  | 1000 to 10000 nM | Cn1nc(-c2ccc(NC(=O)Nc3cc(C(F)(F)F)ccc3F)c(F)c2)c2cnc(NCCCn3ccnc3)nc21 [Example 132, 1-(2-Fluoro-5-trifluoromethyl-phenyl)-3-{2-fluoro-4-[1-methyl-6-(3-(imidazol-1-ylpropylamino)-1H-pyrazolo[3,4-d]pyrimidin-3-yl)-phenyl]} urea]
13 | ≤ 39.8 nM |  | ≥ 300 nM |  | CC1CCCCN1CCCNc1ncc2c(-c3ccc(NC(=O)Nc4cc(C(C)(C)C)on4)c(F)c3)nn(C)c2n1 (stereo not drawn) [Example 135]
14 | ≤ 39.8 nM |  | ≥ 300 nM |  | CCN(CC)CCCNc1ncc2c(-c3ccc(NC(=O)Nc4cc(C(C)(C)C)on4)c(F)c3)nn(C)c2n1 [Example 136]
15 | ≤ 39.8 nM |  | ≥ 300 nM |  | CN1CCCC1CCNc1ncc2c(-c3ccc(NC(=O)Nc4cc(C(C)(C)C)on4)c(F)c3)nn(C)c2n1 (stereo not drawn) [Example 137]
16 | ≤ 39.8 nM |  | 100 to 300 nM |  | CN1CCN(CCCNc2ncc3c(-c4ccc(NC(=O)Nc5cc(C(C)(C)C)on5)c(F)c4)nn(C)c3n2)CC1 [Example 138]
17 | 100 to 1000 nM | > 10000 nM |  | 1000 to 10000 nM | Cn1nc(-c2ccc(NC(=O)Nc3cc(C(F)(F)F)ccc3F)cc2)c2cnc(NCc3ccncc3)nc21 [Example 143, 1-(2-Fluoro-5-trifluoromethyl-phenyl)-3-{4-[(1-methyl-6-(pyridin-4-ylmethyl)-amino)-1H-pyrazolo[3,4-d]pyrimidin-3-yl]-phenyl} urea]
18 | 39.8 to 100 nM | 1000 to 10000 nM | ≥ 300 nM |  | Cn1nc(-c2ccc(NC(=O)Nc3cc(C(F)(F)F)ccc3F)cc2)c2cnc(NCCc3c[nH]cn3)nc21 [Example 145]
